Like-named read-outs stand apart in the source and are kept apart here. Bounds are passed on as bounds.

In experiment [1] the test system is fMLF/CB-induced human neutrophils (superoxide anion generation). As to the kind of experiment: Superoxide anion generation in fMLF/CB-induced human neutrophils. The class given is cell-based. As to conditions: Neutrophil; for inhibition at 10 µM: Homo sapiens, percentage of inhibition at 10 μM, read-out: Superoxide Anion Inh %; for IC50: fMLF/CB-induced human neutrophils. As to the method:
(§1) Human neutrophils were isolated from the blood of healthy adult volunteers and enriched by using dextran sedimentation, Ficoll–Hypaque gradient centrifugation, and hypotonic lysis, as described previously. Then, neutrophils were incubated in Ca^2+-free HBSS buffer (pH 7.4, ice-cold).
Neutrophils (6 × 10^5 cells/mL) incubated (with 0.6 mg/mL ferricytochrome c and 1 mM Ca^2+) in HBSS at 37 °C were treated with DMSO (as control) or tested compound for 5 min. Neutrophils were primed by 1 μg/mL cytochalasin B (CB) for 3 min before being activated by 100 nM fMLF for 10 min. The change of superoxide anion generation was spectrophotomically measured at 550 nm (U-3010, Hitachi, Tokyo, Japan). LY294002 [2-(4-morpholinyl)-8-phenyl-1(4H)-benzopyran- 4-one] was used as a positive control.

For experiment [2], the system named is fMLF/CB-induced human neutrophils (elastase release). Briefly: Elastase release in fMLF/CB-induced human neutrophils. The class given is cell-based. As to conditions: Neutrophil; for inhibition at 10 µM: Homo sapiens, percentage of inhibition at 10 μM, read-out: Elastase Inh %; for IC50: fMLF/CB-induced human neutrophils. How it is done:
as §1
Neutrophils (6 × 10^5 cells/mL) incubated (with 100 μM MeO-Suc-Ala-Ala-Pro-Val-p- nitroanilide and 1 mM Ca^2+) in HBSS at 37 °C were treated with DMSO or the tested compound for 5 min. Neutrophils were, then, activated with fMLF (100 nM)/CB (0.5 μg/mL) for 10 min. The change of elastase release was spectrophotomically measured at 405 nm (U-3010, Hitachi, Tokyo, Japan).

Setting [3] is: mean ± SEM (n ≥ 3), read-out: Superoxide Anion IC50.
[4] abbreviates: mean ± SEM (n ≥ 3), read-out: Elastase IC50.
[5] abbreviates: dash per footnote b, read-out: Superoxide Anion IC50 (dash class).
Where [6] appears, read: dash per footnote b, read-out: Elastase IC50 (dash class).

For `CC12CCC3C(C)(C1CCc1cocc12)C(O)C1(O)C(=O)OCC31C` (centres unmarked) [Compound 1, 17-dehydroxysponalactone], the inhibition at 10 µM in experiment [1] (mean ± SEM (n ≥ 3)) was 91.4%; in experiment [2] (mean ± SEM (n ≥ 3)) it was 90.3%. For the same compound, the 50% inhibitory concentration (IC50) (as a rule, the point on the concentration scale where inhibition reaches its midpoint) in experiment [1] (setting [3]) stood at 3.37 µM; in experiment [2] (setting [4]), 4.07 µM.

With `CC(=CCCc1ccoc1)CCC=C(C)CCC(O)C1(C)CCC(=O)O1` (stereo not drawn) [Compound 4, 16-epi-irciformonin G], the inhibition at 10 µM is 2.61% in experiment [1] (mean ± SEM (n ≥ 3)) and -1.07% in experiment [2] (mean ± SEM (n ≥ 3)). The half-maximal inhibitory concentration (IC50) in experiment [1] (setting [5]) and in experiment [2] (setting [6]) was greater than 10 µM throughout.

On to `C/C(=C\CCc1ccoc1)CCC(=O)N[C@H]1CCOC1=O` [Compound 5, (−)-sponalisolide B], for which the values for the inhibition at 10 µM in experiment [1] (mean ± SEM (n ≥ 3)) and in experiment [2] (mean ± SEM (n ≥ 3)) were 67.1% and 35.2%, respectively. Also, the IC50 in experiment [1] (setting [3]) was 5.31 µM; in experiment [2] (setting [6]) it was greater than 10 µM.

With `CC(C)CCC[C@@H](C)[C@H]1CC[C@H]2C3=CC(=O)[C@@]4(O)C[C@@H](O)CC[C@]4(C)[C@H]3CC[C@]12C` [Compound 7, cholesta-7-ene-3β,5α-diol-6-one], the values for the inhibition at 10 µM in experiment [1] (mean ± SEM (n ≥ 3)) and in experiment [2] (mean ± SEM (n ≥ 3)) were 12.8% and 25.9%, respectively. For the same compound, the concentration for half-maximal inhibition (IC50) in experiment [1] (setting [5]) and in experiment [2] (setting [6]) was greater than 10 µM each time.

Regarding `C/C(=C\CC(=O)NO)CCCc1ccoc1` [Compound 3, spongiafuranohydroxamic acid A], the inhibition at 10 µM came to 8.85% in experiment [1] (mean ± SEM (n ≥ 3)) and 18% in experiment [2] (mean ± SEM (n ≥ 3)). Moreover, the half-inhibitory concentration (IC50) in experiment [1] (setting [5]) and in experiment [2] (setting [6]) was greater than 10 µM each time.

On to `CC1=C(O)C(=O)CC2(C)C1CCC1(CO)c3cocc3CCC12` (centres unmarked) [Compound 6, 18-nor-3,17-dihydroxyspongia-3,13(16),14-trien-2-one], for which the inhibition at 10 µM amounted to 9.44% in experiment [1] (mean ± SEM (n ≥ 3)) and 19.2% in experiment [2] (mean ± SEM (n ≥ 3)). For the same compound, the half-maximal inhibitory concentration (IC50) in experiment [1] (setting [5]) and in experiment [2] (setting [6]) was greater than 10 µM in each case.

Consider `C/C(=C\CCc1ccoc1)CCC(=O)O` [Compound 2, (E)-7-(furan-3-yl)-4-methylhept-4-enoic acid], for which the values for the inhibition at 10 µM in experiment [1] (mean ± SEM (n ≥ 3)) and in experiment [2] (mean ± SEM (n ≥ 3)) were 3.47% and 14%, respectively. Moreover, the IC50 in experiment [1] (setting [5]) and in experiment [2] (setting [6]) was greater than 10 µM throughout.

As for `O=c1cc(N2CCOCC2)oc2c(-c3ccccc3)cccc12` [LY294002, 2-(4-morpholinyl)-8-phenyl-1(4H)-benzopyran-4-one, reference compound], the inhibition at 10 µM in experiment [1] (mean ± SEM (n ≥ 3)) turned out to be 90.3%; in experiment [2] (mean ± SEM (n ≥ 3)), 77.6%. The figures for the concentration for half-maximal inhibition (IC50) in experiment [1] (setting [3]) and in experiment [2] (setting [4]) were 1.88 µM and 2.58 µM, respectively.

(Values after PMC7830757, “An Anti-Inflammatory 2,4-Cyclized-3,4-Secospongian Diterpenoid and Furanoterpene-Related Metabolites of a Marine Sponge Spongia sp. from the Red Sea” (Marine Drugs, 2021).)
